The text below walks through data of patent publication EP0624159B1, “PYRIDYL SUBSTITUTED IMIDAZOLES” (SMITHKLINE BEECHAM CORPORATION, priority 1992, dated 1993).

Experiment [1] relates to IL-1 production by human monocytes. As to the kind of experiment: Inhibition of in vitro IL-1 production by LPS-stimulated human monocytes (IL-1 bioassay via EL-4 IL-2 secretion). Format: cell-based. As to conditions: Monocyte; human peripheral blood monocytes, compound 1 hr before LPS 50 ng/ml, 24 hours at 37°C. As for the experimental part: The effects of compounds of Formula (I) on the in vitro production of IL-1 by human monocytes was examined using the following protocol.
Bacterial lipopolysaccharide (LPS) was used to induce IL-1 production by human peripheral blood monocytes. IL-1 activity was measured by its ability to stimulate a Interleukin 2 (IL-2) producing cell line (EL-4) to secrete IL-2, in concert with A23187 ionophore, according to the method of Simon et al., J. Immunol. Methods, 84, 85, (1985). Human peripheral blood monocytes were isolated and purified from either fresh blood preparations from volunteer donors, or from blood bank buffy coats, according to the procedure of Colotta et al., J. Immunol., 132, 936 (1984). 1 X 10^6 of such monocytes were plated in 24-well plates at a concentration of 1-2 million/ml per well. The cells were allowed to adhere for 2 hours, after which time non-adherent cells were removed by gentle washing. Test compounds were then added to the cells for 1 hour (hr) before the addition of lipopolysaccharide (50 ng/ml), and the cultures were incubated at 37°C for an additional 24 hours. At the end of the incubation period, culture supernatants were removed and clarified of cells and all debris. Culture supernatants were immediately assayed for IL-1 biological activity in the manner described above, as well as for prostaglandin and/or leukotriene concentrations by radioimmunoassay.

Experiment [2] deals with TNF production by Human Monocytes. As to the kind of experiment: Inhibition of in vitro TNF production by LPS-stimulated human monocytes (radioimmunoassay / ELISA). Format: cell-based. Particulars: Monocyte; human peripheral blood monocytes, compound 45 minutes before LPS 100 ng/ml, 16-18 hours at 37°C. As for the experimental part: The effects of compounds of Formula (I) on the in vitro production of TNF by human monocytes was examined using the following protocol.
Human peripheral blood monocytes were isolated and purified from either blood bank buffy coats or plateletpheresis residues, according to the procedure of Colotta, R. et al., J. Immunol., 132(2):936 (1984). The monocytes were plated at a density of 1 X 10^6 cells/ml medium/well in 24-well multi-dishes. […]
The assay buffer consisted of 0.01M NaPO4, 0.15M NaCl, 0.025M EDTA and 0.1% sodium azide at pH 7.4. […] Tubes were centrifuged for 30 minutes at 2000 rpm, supernatants were carefully aspirated, and radioactivity associated with the pellets measured in a Beckman Gamma 5500 counter. […] The concentrations of TNF in the samples was read of a standard curve of rhTNF that was linear in the 157 to 20,000 pg/ml range.
Iodination of rhTNF was performed using a modified chloramine-T method of Frolik et al., J. Biol. Chem., 259:10995-11000 (1984). […] The peak radioactivity containing fractions were pooled and stored at -20°C. […] Biological activity of iodinated TNF was measured by the L929 cytotoxicity assay of Neale, M.L. et al., Eur. J. Can. […]
A general note: In an ELISA, binding on a coated surface is turned into a signal by an enzyme label.

The IC50 is the midpoint of a concentration-inhibition curve.

For the molecule `Fc1ccc(-c2nc(-c3ccccc3)cn2-c2ccncc2)cc1` [Example 1, 1-(4-Pyridyl)-2-(4-fluorophenyl)-4-phenylimidazole], the IC50 lay within 0.1 to 5 µM in experiment [1] and 0.5 to 3.5 µM in experiment [2].
As for `Oc1ccc(-c2cn(-c3ccncc3)c(-c3ccc(F)cc3)n2)cc1` [Example 2, 1-(4-Pyridyl)-2-(4-fluorophenyl)-4-(4-hydroxyphenyl)imidazole], the results for the IC50 in experiment [1] and in experiment [2] were 0.1 to 5 µM and 0.5 to 3.5 µM, respectively.
The molecule `CSc1ccc(-c2cn(-c3ccncc3)c(-c3ccc(F)cc3)n2)cc1` [Example 3, 1-(4-Pyridyl)-2-(4-fluorophenyl)-4-(4-thiomethylphenyl) imidazole] showed an IC50 in experiment [1] above 5 µM.
In turn, `C[S+]([O-])c1ccc(-c2cn(-c3ccncc3)c(-c3ccc(F)cc3)n2)cc1` (stereo not shown) [Example 4, 1-(4-Pyridyl)-2-(4-fluorophenyl)-4-(4-methylsulfinylphenyl)imidazole] yielded an IC50 in experiment [1] above 5 µM.
For `Cc1cn(-c2ccncc2)c(-c2ccc(F)cc2)n1` [Example 5, 1-(4-pyridyl)-2-(4-fluorophenyl)-4-methylimidazole], in experiment [1], the IC50 was 0.1 to 5 µM.
